Values after ≈ are worked out from the molar mass of the structure shown.
Assays:
PC 12 cell line = experiment: Cytotoxicity assay (CCK-8) on PC 12; assay type: cell-based, rat; settings: 20 μM
Description: RAW264.7 cells were cultured in 96-well plates at a density of 3 × 10^4 cells/mL in Dulbecco’s modified Eagle’s medium (DMEM, Gibco, Baltimore, MD, USA) with 10% fetal calf serum (Gibco, Baltimore, MD, USA), 100 U/mL penicillin, and 100 μg/mL streptomycin. Plates were incubated in an atmosphere containing 5% CO2 at […]. PC 12 cells were cultured in 96-well plates at a density of 8000 cells/mL in Dulbecco’s modified Eagle’s medium (DMEM, Gibco, Baltimore, MD, USA) with 10% fetal calf serum (Gibco, Baltimore, MD, USA), 100 U/mL penicillin, and 100 μg/mL streptomycin. Plates were incubated in an atmosphere containing 5% CO2 at 37 °C. Cells were treated with different concentrations of test compounds for 48 h. Then, 10 μL CCK-8 solution were added to all the wells. After 4 h incubation, the absorbance at 450 nm of each well was measured in a multiscan photometer.

[1] = system: LPS-stimulated RAW264.7 cell lines; experiment: LPS-induced NO production (Griess) in RAW264.7; assay type: cell-based, murine; settings: for The production of NO: LPS-stimulated RAW264.7, LPS group 49.86 ± 0.62, control 1.20 ± 0.38; for inhibitory activity against NO production compared with curcumin: 10 μM
Description: RAW 264.7 cells were plated in 96-well plates at a density of 1 × 10^4 cells/well and incubated overnight at 37 °C under 5% CO2. […] Dexamethasone (Solarbio, D8040, Beijing, China) was used as the positive control. Then, 24 h later, NO production was determined by measuring the nitrite content using Griess reagents. Fifty microliters of culture supernatants were transferred to 96-well plates and mixed with 50 μL Griess reagent A. After incubation at room temperature for 5 min, the samples were mixed with an equal volume Griess reagent B for another 5 min. The absorbance of each mixture at 540 nm was measured using a microplate reader.

[2] = system: H2O2-stimulated PC 12 cell lines; experiment: Protection against H2O2-induced oxidative damage (CCK-8); assay type: cell-based, rat; settings: for Cell viability / viability at 5 µM / viability at 10 µM / viability at 20 µM: H2O2-induced oxidative damage, PC 12, H2O2 group 49.69 ± 1.37, control 100; for Cell viability: in % (unit assumed); for cell survival rate (anti-oxidant): at 20 μM; for cell survival rate (anti-oxidant) / anti-oxidant capacity compared with curcumin: H2O2-stimulated PC 12; for anti-oxidant capacity compared with curcumin: 10 μM; for viability at 5 µM / viability at 10 µM / viability at 20 µM: Rattus norvegicus; for viability at 5 µM: PC-12, Dose 5 μM; for viability at 10 µM: PC-12, Dose 10 μM; for viability at 20 µM: PC-12, Dose 20 μM
Description: PC 12 cells were seeded in 96-well plates at a density of 8000 cells/well and incubated overnight. […] After incubating under the same conditions for 24 h, 10 μL CCK-8 solution was added to each well. After 2 h incubation, the absorbance of each well was measured at 450 nm using a microplated reader (Multiskan MK-3, Thermo, Waltham, MA, USA).

PC 12 cell lines = experiment: Radiation protection in vitro (CCK-8); assay type: cell-based, rat; settings: for radiation protection capacity / radiation protection capability compared with curcumin: 10 μM; for radiation protection capacity: versus radiation group; for viability at 5 µM / viability at 10 µM / viability at 20 µM: Rattus norvegicus; for viability at 5 µM: PC-12, Dose 5 μM; for viability at 5 µM / viability at 10 µM / viability at 20 µM / Cell viability: radiation 8.0 Gy, PC 12, radiation group 50.22 ± 1.08; for viability at 10 µM: PC-12, Dose 10 μM; for viability at 20 µM: PC-12, Dose 20 μM; for Cell viability: in % (unit assumed)
Description: The rat adrenal pheochromocytoma cells (PC 12) were used for in vitro studies. A Cell Counting Kit-8 (CCK-8, Applygen Technologies Co., Ltd., Beijing, China) assay was used to determine cell viability. […] Cells were irradiated with dose of 8.0 Gy at a dose rate of 0.8 Gy/min. Then, 10 μL CCK-8 solution was added to all the wells. After 4 h incubation, the absorbance at 450 nm of each well was measured in a multiscan photometer.

[3] = Aqueous solubility determination by UV spectrophotometer; assay type: physicochemical; settings: water, thermodynamic from solid, saturated solution concentration
Description: A UV spectrophotometer was used to test the aqueous solubility of target compounds. Each compound to be tested was prepared into solutions with concentrations of 0.2 M, 0.1 M, 0.05 M, 0.025 M, 0.0125 M, 0.00625 M, and 0.003125 M. The optical density (OD) values of the prepared solutions were measured using an ultraviolet spectrophotometer, and concentration–OD-value standard curves were drawn for each compound to be tested. The saturated solutions of the target compounds were diluted by 5000 times and detected using an ultraviolet spectrophotometer to measure the OD values, respectively. The measured OD values were substituted into the corresponding concentration-OD value standard curve to calculate the diluted concentrations, which were multiplied by 5000 to obtain the saturated solution concentrations of the target compounds.

[4] = cited from earlier work

Row | Compound | effect on PC 12 cell proliferation (PC 12 cell line) | The production of NO ([1]; Dose 5 μM) | The production of NO ([1]; Dose 10 μM) | The production of NO ([1]; Dose 15 μM) | Cell viability ([2]; Dose 5 μM) | Cell viability ([2]; Dose 10 μM) | Cell viability ([2]; Dose 20 μM) | cell survival rate (anti-oxidant) [2] [%] | radiation protection capacity (PC 12 cell lines) | viability at 5 µM (PC 12 cell lines) [%] | viability at 10 µM (PC 12 cell lines) [%] | viability at 20 µM (PC 12 cell lines) [%] | inhibitory activity against NO production compared with curcumin [1] | anti-oxidant capacity compared with curcumin [2] | radiation protection capability compared with curcumin (PC 12 cell lines; irradiated PC 12) | solubility [3] [mg/mL] | viability at 5 µM [2] [%] | viability at 10 µM [2] [%] | viability at 20 µM [2] [%] | Cell viability (PC 12 cell lines; Dose 5 μM) | other results
1 | COc1ccc(/C=C/C(=O)CC(=O)/C=C/c2cc(CN(C)C)c(O)c(OC)c2)cc1O [Compound 11] | significant promoting effect | 35.85 ± 0.30 | 19.36 ± 1.66 | 7.59 ± 0.35 | 63.24 ± 1.07 | 72.52 ± 0.32 | 96.33 ± 1.04 | 96 | a certain degree of radiation protection capacity | 65.09 ± 0.4 | 84.5 ± 3.4 | 94.2 ± 4.35 |  |  |  |  |  |  |  |  | cell survival rate (radiation protection) (PC 12 cell lines; at 20 μM, irradiated PC 12): 94%
2 | COc1ccc(/C=C/C(=O)CC(=O)/C=C/c2cc(CN(C)C)c(O)c(OC)c2)cc1OC [Compound 5a] | significant promoting effect | 33.90 ± 1.94 | 15.60 ± 2.78 | 9.88 ± 0.53 | 75.15 ± 5.90 | 84.53 ± 2.36 | 106.17 ± 3.34 | 106 | a certain degree of radiation protection capacity | 58.2 ± 1.86 | 68.7 ± 5.9 | 105 ± 5.01 | better inhibitory activity | better anti-oxidant capacity | better radiation protection capability | 118 (≈ 268 mM) |  |  |  |  | 
3 | COc1ccc(/C=C/C(=O)CC(=O)/C=C/c2cc(CN(C)C)c(O)c(OC)c2)cc1OC [Compound 5] | significant promoting effect | 34.62 ± 0.76 | 16.89 ± 1.33 | 9.97 ± 1.11 |  |  |  |  | a certain degree of radiation protection capacity |  |  |  |  | better anti-oxidant capacity |  |  | 71.02 ± 0.56 | 84.4 ± 1.86 | 103 ± 3.36 | 58.70 ± 4.93 | Cell viability (PC 12 cell lines; Dose 10 μM): 64.93 ± 4.67; Cell viability (PC 12 cell lines; Dose 20 μM): 104.23 ± 2.86
4 | CCOc1cc(/C=C/C(=O)CC(=O)/C=C/c2cc(CN(C)C)c(O)c(OC)c2)ccc1O [Compound 1] | significant promoting effect | 44.55 ± 0.55 | 34.25 ± 0.96 | 12.30 ± 0.90 |  |  |  |  | a certain degree of radiation protection capacity |  |  | 89.7 ± 8.17 |  |  |  |  | 63.9 ± 2.86 | 74.7 ± 4.82 | 86.4 ± 3.89 | 47.61 ± 1.20 | Cell viability (PC 12 cell lines; Dose 10 μM): 57.30 ± 1.29
5 | COc1cc(/C=C/C(=O)CC(=O)/C=C/c2ccc(OC)c(OC)c2OC)cc(CN(C)C)c1O [Compound 6a] | significant promoting effect | 27.02 ± 2.91 | 14.29 ± 1.71 | 5.23 ± 0.72 | 60.05 ± 5.39 | 76.41 ± 2.29 | 100.96 ± 1.07 |  | a certain degree of radiation protection capacity | 65.6 ± 2.17 | 71.7 ± 2.56 | 84.9 ± 6.57 | better inhibitory activity |  | better radiation protection capability | 112 (≈ 239 mM) |  |  |  |  | 
6 | COc1cc(/C=C/C(=O)CC(=O)/C=C/c2ccc(O)c(OC)c2)ccc1O [Curcumin, curcumin, reference compound] |  | 37.00 ± 1.12 | 21.55 ± 1.29 | 5.96 ± 0.03 |  |  |  |  |  | 55.1 ± 1.37 | 59.39 ± 0.57 | 75.47 ± 0.68 |  |  |  |  | 59.6 ± 2.21 | 71.8 ± 1.52 | 86.4 ± 1.28 |  | aqueous solubility [4]: < 0.1 mg/mL
